According to patent US4592906A, “Ultra-violet absorbing compounds and compositions containing said compounds” (Graesser Laboratories, Ltd., priority 1984, dated 1986):
In brackets after ≈: the same amount, converted by molar mass.

How the values were obtained:
Format in all cases: physicochemical
[1] = Ultra-violet absorption (absorptivity, absorption maximum); conditions: for Absorptivity: c in g/l, path length b in centimeters
Protocol: The absorptivity of the following p-dimethylaminocinnamate was measured using the formula [formula] wherein c is concentration in g/l and b is path length in centimeters: […]

[2] = Physical state at room temperature
[3] = Miscibility with liquid paraffin (mineral oil), methanol and water
[4] = Solubility in liquid paraffin (mineral oil) at 23; conditions: organic solvent or mixture
From the text: In particular, their solubilities in liquid paraffin are as follows:
Ester paraffin at 23 (% wt/vol)

| Structure (SMILES) | Absorptivity [1] [L/g/cm] | solubility [4] [mg/mL] | other results |
| --- | --- | --- | --- |
| CCCCC(CC)COC(=O)C=Cc1ccc(N(C)C)cc1 (centres unmarked) [Example 2-Ethylhexyl, 2-Ethylhexyl 4-dimethylaminocinnamate] | 101 | – | λmax ([1]; Example 1, prepared product): 360 nm; physical state at room temperature [2]: liquid at room temperature; miscibility with liquid paraffin (mineral oil) [3]: completely miscible; miscibility with methanol [3]: completely miscible |
| CC(CCOC(=O)C=Cc1ccc(N(C)C)cc1)CC(C)(C)C (centres unmarked) [(d), 3,5,5-trimethylhexyl p-dimethylaminocinnamate] | – | 29 (≈ 91.3 mM) | – |
| CCCCCCCCOC(=O)C=Cc1ccc(N(C)C)cc1 [(c), 1-octyl p-dimethylaminocinnamate, reference compound] | 89 | 25 (≈ 82.4 mM) | – |
| CCCCCCC(C)OC(=O)C=Cc1ccc(N(C)C)cc1 (centres unmarked) [Example 2-Octyl, 2-octyl 4-dimethylaminocinnamate] | 95 | – | physical state at room temperature [2]: liquid at room temperature; miscibility with liquid paraffin (mineral oil) [3]: completely miscible; miscibility with methanol [3]: completely miscible |
| CCCCCCCOC(=O)C=Cc1ccc(N(C)C)cc1 [(b), 1-heptyl p-dimethylaminocinnamate] | – | 21 (≈ 72.6 mM) | – |
| CC1CC(OC(=O)C=Cc2ccc(N(C)C)cc2)CC(C)(C)C1 (centres unmarked) [(e), 3,3,5-trimethylcyclohexyl p-dimethylaminocinnamate] | – | 12 (≈ 38 mM) | – |
| CCOC(=O)C=Cc1ccc(N(C)C)cc1 [(2), ethyl p-dimethylaminocinnamate, reference compound] | 125 | – | – |
| CC(C)CCOC(=O)C=Cc1ccc(N(C)C)cc1 [(a), 3-methylbutyl-p-dimethylaminocinnamate] | – | 24 (≈ 91.8 mM) | – |
| CCCCCCCCCCOC(=O)C=Cc1ccc(N(C)C)cc1 [(f), 1-decyl p-dimethylaminocinnamate] | – | 21 (≈ 63.3 mM) | – |
